Experimental data: patent US7592364B2, “Substituted gamma lactams as therapeutic agents” (Allergan, Inc., priority 2006, dated 2009)

Key:
hEP2/Gqs5 = target: T1, hEP2/Gqs5 (Homo sapiens, UniProt P43116); assay: EP2 FLIPR calcium signal study; assay type: cell-based; conditions: HEK-293(EBNA) cells expressing hEP2/Gqs5; unit inferred
T1 construct: expressed in transfected cells; host or cells: HEK-293(EBNA)
Procedure: (§1) Methods for FLIPR™ Studies
(§2) HEK-293(EBNA) cells, stably expressing one type or subtype of recombinant human prostaglandin receptors (prostaglandin receptors expressed: hDP/Gqs5; hEP1; hEP2/Gqs5; hEP3A/Gqi5; hEP4/Gqs5; hFP; hIP; hTP), were cultured in 100 mm culture dishes in high-glucose DMEM medium containing 10% fetal bovine serum, 2 mM 1-glutamine, 250 μg/ml geneticin (G418) and 200 μg/ml hygromycin B as selection markers, and 100 units/ml penicillin G, 100 μg/ml streptomycin and 0.25 μg/ml amphotericin B.
(§3) (b) Calcium Signal Studies on The FLIPR™
(§4) Cells were seeded at a density of 5×10^4 cells per well in Biocoat® Poly-D-lysine-coated black-wall, clear-bottom 96-well plates (Becton-Dickinson) and allowed to attach overnight in an incubator at 37° C. Cells were then washed two times with HBSS-HEPES buffer (Hanks Balanced Salt Solution without bicarbonate and phenol red, 20 mM HEPES, pH 7.4) using a Denley Cellwash plate washer (Labsystems). After 45 minutes of dye-loading in the dark, using the calcium-sensitive dye Fluo-4 […] at a final concentration of 2 μM, plates were washed four times with HBSS-HEPES buffer to remove excess dye leaving 100 μl in each well. Plates were re-equilibrated to 37° C. for a few minutes.
(§5) Cells were excited with an Argon laser at 488 nm, and emission was measured through a 510-570 nm bandwidth emission filter (FLIPR™, Molecular Devices, Sunnyvale, Calif.). Drug solution was added in a 50 μl volume to each well to give the desired final concentration. The peak increase in fluorescence intensity was recorded for each well. On each plate, four wells each served as negative (HBSS-HEPES buffer) and positive controls (standard agonists: BW245C (hDP); PGE2 (hEP1; hEP2/Gqs5; hEP3A/Gqi5; hEP4/Gqs5); PGF2α (hFP); carbacyclin (hIP); U-46619 (hTP), depending on receptor). The peak fluorescence change in each drug-containing well was then expressed relative to the controls.
(§6) Compounds were tested in a high-throughput (HTS) or concentration-response (CoRe) format. In the HTS format, forty-four compounds per plate were examined in duplicates at a concentration of 10^−5 M. To generate concentration-response curves, four compounds per plate were tested in duplicates in a concentration range between 10^−5 and 10^−11 M. The duplicate values were averaged. In either, HTS or CoRe format each compound was tested on at least 3 separate plates using cells from different passages to give an n>3.

EP2 [1] = target: T2, EP2 (Homo sapiens, UniProt P43116); assay: EP2 cAMP assay; assay type: cell-based; conditions: unit inferred
EP4 receptors = target: T3, EP4 receptors (Homo sapiens, UniProt P35408); assay: EP4 radioligand binding (Ki) vs [3H]PGE2; conditions: unit inferred
T3 construct: expressed in transfected cells; host or cells: HEK-293
Procedure: (§7) Cells Stably Expressing EP1, EP2, EP4 and FP Receptors
(§8) HEK-293 cells stably expressing the human or feline FP receptor, or EP1, EP2, or EP4 receptors were washed with TME buffer, scraped from the bottom of the flasks, and homogenized for 30 sec using a Brinkman PT 10/35 polytron. TME buffer was added to achieve a final 40 ml volume in the centrifuge tubes (the composition of TME is 100 mM TRIS base, 20 mM MgCl2, […]; 10N HCl is added to achieve a pH of 7.4).
(§9) The cell homogenate was centrifuged at 19000 r.p.m. for 20 min at 4° C. using a Beckman Ti-60 rotor. The resultant pellet was resuspended in TME buffer to give a final 1 mg/ml protein concentration, as determined by Biorad assay. Radioligand binding competition assays vs. [^3H-]17-phenyl PGF2α (5 nM) were performed in a […] volume for 60 min. Binding reactions were started by adding plasma membrane fraction. The reaction was terminated by the addition of 4 ml ice-cold TRIS-HCl buffer and rapid filtration through glass fiber GF/B filters using a Brandel cell harvester. The filters were washed 3 times with ice-cold buffer and oven dried for one hour.
(§10) [^3H-] PGE2 (specific activity 180 Ci mmol) was used as the radioligand for EP receptors. [^3H] 17-phenyl PGF2, was employed for FP receptor binding studies. Binding studies employing EP1, EP2, EP4 and FP receptors were performed in duplicate in at least three separate experiments. A 200 μl assay volume was used. Incubations were for 60 min at 25° C. and were terminated by the addition of 4 ml of ice-cold 50 mM TRIS-HCl, followed by rapid filtration through Whatman GF/B filters and three additional 4 ml washes in a cell harvester (Brandel). Competition studies were performed using a final concentration of 5 nM [^3H]-PGE2, or 5 nM [^3H] 17-phenyl PGF2, and non-specific binding determined with 10^−5M of unlabeled PGE2, or 17-phenyl PGF2α, according to receptor subtype studied.

EP2 [2] = target: T2, EP2; assay: EP2 competition binding (Ki) vs [3H]PGE2; parameters: expressed in transfected cells; host or cells: HEK 293; conditions: HEK 293 cells stably expressing human EP2, [3H]PGE2; unit inferred
Procedure: Competition binding experiments were performed in a medium containing Hank's balanced salt solution, Hepes 20 mM, pH 7.3, membranes (˜60 μg protein) or 2×10^5 cells from HEK 293 cells stably expressing human EP2 receptors, [^3H]PGE2 (10 nM) and various concentrations of test compounds in a total volume of 300 μl. Reaction mixtures were incubated at 23° C. for 60 min, and were filtered over Whatman GF/B filters under vacuum. Filters were washed three times with 5 ml ice-cold buffer containing 50 mM Tris/HCl (pH 7.3). Non-specific binding was estimated in the presence of excess unlabeled PGE2 (10 μM). Binding data fitted to the binding model for a single class of binding sites, using nonlinear regression analysis. IC50 values thus obtained were converted to Ki using the equation of Ki=(IC50/(1+[L]/KD) where [L] represents PGE2 concentration (10 nM) and KD the dissociation constant for [^3H]PGE2 at human EP2 receptors (40 nM).
as §7, §8, §9, §10

hEP4/Gqs5 = target: T4, hEP4/Gqs5 (Homo sapiens, UniProt P35408); assay: EP4 FLIPR calcium signal study; assay type: cell-based; conditions: HEK-293(EBNA) cells expressing hEP4/Gqs5; unit inferred
T4 construct: expressed in transfected cells; host or cells: HEK-293(EBNA)
Procedure: as §1, §2, §3
(§11) Cells were seeded at a density of 5×10^4 cells per well in Biocoat® Poly-D-lysine-coated black-wall, clear-bottom 96-well plates (Becton-Dickinson) and allowed to attach overnight in an incubator at 37° C. Cells were then washed two times with HBSS-HEPES buffer (Hanks Balanced Salt Solution without bicarbonate and phenol red, 20 mM HEPES, pH 7.4) using a Denley Cellwash plate washer (Labsystems). […]
(§12) Cells were excited with an Argon laser at 488 nm, and emission was measured through a 510-570 nm bandwidth emission filter (FLIPR™, Molecular Devices, Sunnyvale, Calif.). […] The peak increase in fluorescence intensity was recorded for each well. […] The peak fluorescence change in each drug-containing well was then expressed relative to the controls. […]

hDP/Gqs5 = target: T5, hDP/Gqs5 (Homo sapiens, UniProt Q13258); assay: hDP FLIPR calcium signal study; assay type: cell-based; conditions: HEK-293(EBNA) cells expressing hDP/Gqs5; read-out: Other Receptors (EC50 in nM) hDP
T5 construct: expressed in transfected cells; host or cells: HEK-293(EBNA)
T5 sequence (Q13258 1-359): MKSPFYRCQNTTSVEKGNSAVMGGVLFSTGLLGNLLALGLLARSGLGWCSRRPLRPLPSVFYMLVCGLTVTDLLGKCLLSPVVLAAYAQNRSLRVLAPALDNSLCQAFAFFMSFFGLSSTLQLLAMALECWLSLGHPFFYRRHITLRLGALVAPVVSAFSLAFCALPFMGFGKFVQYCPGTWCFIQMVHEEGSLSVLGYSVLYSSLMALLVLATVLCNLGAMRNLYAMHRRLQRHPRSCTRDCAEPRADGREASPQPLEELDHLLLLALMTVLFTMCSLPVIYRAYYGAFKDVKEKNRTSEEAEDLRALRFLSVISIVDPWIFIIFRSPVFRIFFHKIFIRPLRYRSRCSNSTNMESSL
Procedure: as §1, §2, §3, §4, §5, §6

hEP3A/Gqi5 = target: T6, hEP3A/Gqi5 (Homo sapiens, UniProt P43115); assay: hEP3A FLIPR calcium signal study; assay type: cell-based; conditions: HEK-293(EBNA) cells expressing hEP3A/Gqi5; read-out: Other Receptors (EC50 in nM) hEP3A
T6 construct: expressed in transfected cells; host or cells: HEK-293(EBNA)
T6 sequence (P43115 1-390): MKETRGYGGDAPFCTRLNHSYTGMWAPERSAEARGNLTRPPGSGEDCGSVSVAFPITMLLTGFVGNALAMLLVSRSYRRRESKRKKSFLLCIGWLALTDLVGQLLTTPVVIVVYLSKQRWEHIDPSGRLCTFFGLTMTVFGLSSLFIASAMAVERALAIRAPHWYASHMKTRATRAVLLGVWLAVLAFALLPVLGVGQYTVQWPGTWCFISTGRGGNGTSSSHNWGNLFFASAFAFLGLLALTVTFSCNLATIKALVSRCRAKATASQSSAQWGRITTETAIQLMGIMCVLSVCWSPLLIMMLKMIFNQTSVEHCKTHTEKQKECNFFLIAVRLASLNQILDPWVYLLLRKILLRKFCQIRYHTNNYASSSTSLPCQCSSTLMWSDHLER
Procedure: as §1, §2, §3, §11, §12

T2 sequence (P43116 whole entry): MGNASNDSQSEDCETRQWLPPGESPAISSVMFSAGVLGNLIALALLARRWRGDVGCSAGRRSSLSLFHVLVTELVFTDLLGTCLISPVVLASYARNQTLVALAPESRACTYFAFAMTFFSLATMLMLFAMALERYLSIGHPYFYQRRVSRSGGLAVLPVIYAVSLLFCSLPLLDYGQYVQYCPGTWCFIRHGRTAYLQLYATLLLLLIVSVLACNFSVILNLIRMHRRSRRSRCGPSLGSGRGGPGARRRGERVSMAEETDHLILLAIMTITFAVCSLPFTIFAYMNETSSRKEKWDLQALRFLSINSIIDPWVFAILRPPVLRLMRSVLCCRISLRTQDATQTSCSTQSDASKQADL
T1 sequence (P43116 whole entry): as above
T3 sequence (P35408 whole entry): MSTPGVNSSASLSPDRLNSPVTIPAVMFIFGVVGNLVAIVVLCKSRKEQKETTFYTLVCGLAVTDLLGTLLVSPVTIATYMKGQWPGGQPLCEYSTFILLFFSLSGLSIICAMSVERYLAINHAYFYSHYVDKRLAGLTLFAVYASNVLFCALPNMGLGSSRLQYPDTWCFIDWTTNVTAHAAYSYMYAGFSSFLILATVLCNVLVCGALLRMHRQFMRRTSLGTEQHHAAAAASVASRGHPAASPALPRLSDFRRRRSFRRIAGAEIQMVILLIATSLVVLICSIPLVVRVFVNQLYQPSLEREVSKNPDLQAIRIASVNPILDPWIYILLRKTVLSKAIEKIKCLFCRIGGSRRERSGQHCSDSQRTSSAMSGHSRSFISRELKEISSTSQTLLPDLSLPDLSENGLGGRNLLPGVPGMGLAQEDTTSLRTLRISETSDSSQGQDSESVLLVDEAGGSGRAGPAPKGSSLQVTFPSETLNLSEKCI
T4 sequence (P35408 whole entry): as above

| Compound | EC50 (hEP2/Gqs5) [nM] | EC50 (EP2 [1]) [nM] | Ki (EP4 receptors) [nM] | Ki (EP2 [2]) [nM] | EC50 (hEP4/Gqs5) [nM] | EC50 (hDP/Gqs5) [nM] | EC50 (hEP3A/Gqi5) [nM] |
| --- | --- | --- | --- | --- | --- | --- | --- |
| CCCCC(O)c1ccc(N2C(=O)CC[C@@H]2COCc2ccc(C(=O)O)s2)cc1 (mixture of isomers) [Example 12, 5-{(R)-1-[4-(1-Hydroxy-pentyl)-phenyl]-5-oxo-pyrrolidin-2-ylmethoxymethyl}-thiophene-2-carboxylic acid] | 212 | 8 | > 10000 | 387 | – | – | – |
| CCC(O)c1ccc(N2C(=O)CC[C@@H]2COCc2ccc(C(=O)O)s2)cc1 (mixture of isomers) [Example 15, 5-{(R)-1-[4-(1-Hydroxy-propyl)-phenyl]-5-oxo-pyrrolidin-2-ylmethoxymethyl}-thiophene-2-carboxylic acid] | 1810 | 312 | > 10000 | 5730 | > 10000 | 7560 | – |
| CCCCC[C@@H](O)c1ccc(N2C(=O)CC[C@@H]2/C=C/Cc2ccc(C(=O)O)s2)cc1 (racemic) [Example 16, 5-((E and Z)-3-{(R)-1-[4-(1-Hydroxy-hexyl)-phenyl]-5-oxo-pyrrolidin-2-yl}-allyl)-thiophene-2-carboxylic acid] | 226 | 15 | > 10000 | 1380 | – | – | – |
| CCCC(O)c1ccc(N2C(=O)CC[C@@H]2COCc2ccc(C(=O)O)s2)cc1 (mixture of isomers) [Example 14, 5-{(R)-1-[4-(1-Hydroxy-butyl)-phenyl]-5-oxo-pyrrolidin-2-ylmethoxymethyl}-thiophene-2-carboxylic acid] | 426 | 27 | > 10000 | 1640 | – | – | – |
| CCCCCCC(O)c1ccc(N2C(=O)CC[C@@H]2CCCc2ccc(C(=O)O)s2)cc1 (mixture of isomers) [Example 36, 5-(3-{(S)-1-[4-(1-Hydroxy-heptyl)-phenyl]-5-oxo-pyrrolidin-2-yl}-propyl)-thiophene-2-carboxylic acid] | 30 | – | – | – | > 10000 | 105 | 47 |
| CCCCCC(O)c1ccc(N2C(=O)CC[C@@H]2CCCc2ccc(C(=O)O)s2)cc1 (mixture of isomers) [Example 17, 5-(3-{(S)-1-[4-(1-Hydroxy-hexyl)-phenyl]-5-oxo-pyrrolidin-2-yl}-propyl)-thiophene-2-carboxylic acid] | 5 | 0.55 | > 10000 | 23 | – | 1230 | 155 |

Results, then the compound that gave them:

| EC50 (hEP2/Gqs5) [nM] | EC50 (EP2 [1]) [nM] | Ki (EP4 receptors) [nM] | Ki (EP2 [2]) [nM] | EC50 (hEP4/Gqs5) [nM] | EC50 (hDP/Gqs5) [nM] | EC50 (hEP3A/Gqi5) [nM] | Compound |
| --- | --- | --- | --- | --- | --- | --- | --- |
| 7280 | – | 8750 | 22700 | – | – | – | CCCCCC(O)c1ccc(N2C(=O)CC[C@@H]2COc2ccc(C(=O)O)cc2)cc1 (mixture of isomers) [Example 43, 4-{(R)-1-[4-(1-Hydroxy-hexyl)-phenyl]-5-oxo-pyrrolidin-2-ylmethoxy}-benzoic acid] |
| 20 | 1.5 | > 10000 | 190 | – | 5760 | – | CCCCCCC(O)c1ccc(N2C(=O)CC[C@@H]2COCc2ccc(C(=O)O)s2)cc1 (mixture of isomers) [Example 13, 5-{(R)-1-[4-(1-Hydroxy-heptyl)-phenyl]-5-oxo-pyrrolidin-2-ylmethoxymethyl}-thiophene-2-carboxylic acid] |
| > 10000 | 517 | > 10000 | – | – | – | – | CCCCCC(O)c1ccc(N2C(=O)CC[C@@H]2COCc2cccc(C(=O)O)c2)cc1 (mixture of isomers) [Example 11, 3-{(R)-1-[4-(1-Hydroxy-hexyl)-phenyl]-5-oxo-pyrrolidin-2-ylmethoxymethyl}-benzoic acid] |
